Measurements as given in ChEMBL document CHEMBL5604063, “ASAP - DENV-2 NS2B-NS3 protease fluorescence dose response” (2024).
Several values for one entry are separate records, joined by “and”; a condition that tells them apart may be missing. Equal entries are not always repeated.

What was measured:
Genome polyprotein [1] = target: T1, Genome polyprotein (dengue virus type 2, UniProt P29990); format: functional, Thailand/16681/1984
Genome polyprotein [2] = target: T1, Genome polyprotein; format: functional, Thailand/16681/1984; remark: listed apart in the source

T1 sequence (P29990 1346-1475 limits assumed): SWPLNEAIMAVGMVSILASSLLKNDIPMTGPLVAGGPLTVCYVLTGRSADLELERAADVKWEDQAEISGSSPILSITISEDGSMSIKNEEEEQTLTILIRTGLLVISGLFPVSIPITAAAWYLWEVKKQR
T1 sequence (P29990 1476-2093 limits assumed): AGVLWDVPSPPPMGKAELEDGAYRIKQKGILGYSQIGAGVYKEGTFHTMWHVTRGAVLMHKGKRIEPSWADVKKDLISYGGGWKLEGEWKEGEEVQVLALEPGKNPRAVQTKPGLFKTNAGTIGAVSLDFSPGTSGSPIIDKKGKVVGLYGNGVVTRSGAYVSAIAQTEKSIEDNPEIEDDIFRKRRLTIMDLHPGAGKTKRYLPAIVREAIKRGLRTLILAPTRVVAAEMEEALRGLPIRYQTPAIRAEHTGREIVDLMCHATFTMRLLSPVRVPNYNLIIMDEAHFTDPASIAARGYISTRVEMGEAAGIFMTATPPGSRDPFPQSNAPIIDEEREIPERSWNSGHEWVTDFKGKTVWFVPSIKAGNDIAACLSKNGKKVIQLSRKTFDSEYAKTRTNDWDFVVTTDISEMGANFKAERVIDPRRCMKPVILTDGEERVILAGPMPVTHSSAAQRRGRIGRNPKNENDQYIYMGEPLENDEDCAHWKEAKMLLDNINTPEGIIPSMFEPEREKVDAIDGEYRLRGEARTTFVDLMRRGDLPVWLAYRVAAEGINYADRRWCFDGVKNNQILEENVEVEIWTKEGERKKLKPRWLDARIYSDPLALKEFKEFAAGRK

| SMILES | IC50 (Genome polyprotein [1]) [µM] | IC50 (Genome polyprotein [2]) |
| --- | --- | --- |
| NCc1cccc(NC(=O)c2cc(C3CC3)nc3ccc(Cl)cc23)c1 | > 100 | > 99.5 µM |
| O=C(Nc1cc(Cl)cc(C(=O)Nc2ccnc([C@H]3CCCN3)n2)c1)OCc1ccccc1 | > 100 | > 99.5 µM |
| C[C@H]1CCC[C@H](C(=O)Nc2cccc(CN)c2)O1 | > 100 | > 99.5 µM |
| NCc1cccc([C@H]2C[C@@H]2c2cc(Cl)cc(NC(=O)OCc3ccccc3)c2)c1 | > 100 | 41 µM and 25.9 µM and 30 µM |
| Cn1cncc1COc1cccc([C@H](NC(=O)OCc2ccccc2)C(=O)Nc2cccc(CN)c2)c1 | > 100 | 66 µM |
| CS(=O)(=O)N(c1cc(Cl)cc(C(=O)Nc2cccc(CN)c2)c1)S(C)(=O)=O | > 100 | > 99.5 µM |
| Cc1cc(CN)cc(C)c1NS(=O)(=O)c1ccc(Oc2ccccc2Cl)cc1 | > 100 | > 99.5 µM |
| NC1(c2cccc(NS(=O)(=O)c3ccc(Oc4ccccc4Cl)cc3)c2)CCOCC1 | > 100 | > 99.5 µM |
| O=C(N[C@H]1[C@H]2CCCCC[C@H]2[C@H]1C(=O)Nc1cccc(C2CCNCC2)c1)OCc1ccccc1 | 32.7 | 17.9 µM and 53 µM |
| NCCc1ccc(NC(=O)c2cc(Cl)cc(CN)c2)cc1 | > 100 | > 99.5 µM |
| COCC=Cc1cccc([C@@H](NC(=O)OCc2ccccc2)C(=O)Nc2cccc(CN)c2)c1 | > 100 | 56.9 µM |
| O=c1ccc(N2CCN(Cc3c[nH]c4ccccc34)CC2)c[nH]1 | > 100 | > 99.5 µM |
| NCc1cccc(NC(=O)c2cc(N)cc(Cl)c2)c1 | > 100 | > 99.5 µM |
| c1cncc(CN2CC[C@H](NCc3c[nH]c4ccccc34)C2)c1 | > 100 | > 99.5 µM |
| CCOc1cccc(-c2ccc(S(=O)(=O)Nc3ccc(Cl)cc3C(=O)O)cc2C)c1 | 7.34 | 7.15 µM |
| NC1CN(c2ccc(NS(=O)(=O)c3ccc(Oc4ccccc4Cl)cc3)cn2)C1 | > 100 | > 99.5 µM |
| NCc1cccc(NC(=O)[C@H](NC(=O)OCc2ccccc2)c2cccc(-c3ccnc(N)c3)c2)c1 | > 100 | > 99.5 µM |
| Cc1cc(C(=O)Nc2cccc(CN)c2)n2nc(C(F)(F)F)cc2n1 | > 100 | 86.7 µM |
| CC(C)(C)OC(=O)NCc1cccc(NC(=O)C[C@H](N)c2ccc(OCc3ccccc3)c(Br)c2)c1 | > 100 | > 99.5 µM |
| N[C@H]1CCCc2ccc(NC(=O)c3cc(Cl)cc(NC(=O)OCc4ccccc4)c3)cc21 | > 100 | > 99.5 µM |

| SMILES | IC50 (Genome polyprotein [1]) [µM] | IC50 (Genome polyprotein [2]) |
| --- | --- | --- |
| NCCc1cc(Cl)cc(C(=O)Nc2cccc(CN)c2)c1 | > 100 | > 99.5 µM |
| NCc1cccc(NC(=O)[C@@H](NC(=O)OCc2ccccc2)c2cccc(-c3ccc(CN)cc3F)c2)c1 | > 100 | > 99.5 µM |
| NC1(c2cccc(NC(=O)c3cc(Cl)cc(NC(=O)OCc4ccccc4)c3)c2)CCOCC1 | > 100 | > 99.5 µM |
| Cc1ccc(OCc2ccccc2Cl)c(C(=O)Nc2cccc(CN)c2)c1 | > 100 | 99.5 µM |
| CS(=O)(=O)Nc1cc(Cl)cc(C(=O)Nc2cccc(CN)c2)c1 | > 100 | > 99.5 µM |
| CCc1cc(NC(=O)OCc2ccccc2)cc(C(=O)Nc2cccc(CN)c2)c1 | > 100 | > 99.5 µM |
| NCc1cc(Cl)cc(C(=O)Nc2cccc(C3CCNCC3)c2)c1 | > 100 | > 99.5 µM |
| COc1ccc(-c2cccc([C@H](NC(=O)OCc3ccccc3)C(=O)Nc3cccc(CN)c3)c2)c(C#N)c1 | > 100 | 56.5 µM |
| NCc1cccc(NC(=O)[C@H](NC(=O)OCc2ccccc2)c2cccc(-c3ccccn3)c2)c1 | > 100 | > 99.5 µM |
| NCc1cccc(NC(=O)[C@H]2CCc3nnc(-c4ccc(F)cc4)n3C2)c1 | > 100 | > 99.5 µM |
| CC(C)(CNCc1c[nH]c2ccccc12)c1cccnc1 | > 100 | > 99.5 µM |
| Cn1cc(NC(=O)c2cc(Cl)cc(NC(=O)OCc3ccccc3)c2)cn1 | > 100 | > 99.5 µM |
| NCc1cccc(NC(=O)c2cc(Cl)cc(NC(=O)NCc3ccccc3)c2)c1 | > 100 | > 99.5 µM |
| NCc1cccc(CNC(=O)[C@H]2[C@H]3CCCCC[C@H]3[C@H]2NC(=O)OCc2ccccc2)c1 | 80.3 | 14.4 µM and 63.2 µM and 44.4 µM |
| COC(=O)c1cc(NC(=O)OCc2ccccc2)cc(C(=O)Nc2cccc(CN)c2)c1 | > 100 | > 99.5 µM |
| O=C(Nc1cc(Cl)cc(C(=O)Nc2nccc([C@H]3CCCCN3)n2)c1)OCc1ccccc1 | > 100 | > 99.5 µM |
| CCCN(C)C(=O)Cn1ccnc(N2CC[C@H](CO)C2)c1=O | > 100 | > 99.5 µM |
| NCc1ccc(NC(=O)[C@H]2[C@H]3CCCCC[C@H]3[C@H]2NC(=O)OCc2ccccc2)cc1 | > 100 | 57.4 µM |
| O=C(Nc1cc(Cl)cc(C(=O)Nc2nc([C@H]3CCCN3)cc(=O)[nH]2)c1)OCc1ccccc1 | > 100 | 86.9 µM |
| NCc1cccc(NC(=O)[C@@H]2C[C@@H](O)CN2C(=O)C23CC4CC(CC(C4)C2)C3)c1 | > 100 | > 99.5 µM |
